Test results as given in patent US12410160B2 (Gilead Sciences, Inc., priority 2021, dated 2025).
Like-named read-outs stand apart in the source and are kept apart here.

How the values were obtained:
human KHK-C = human KHK-C (Homo sapiens (Human), UniProt P50053); test: KHK Biochemical Assay (IC50), ADP-Glo, KHK-C; conditions: average of at least two separate assays
Outline: (§1)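 His-tagged enzyme expressed in BL21 (DE3), Ni-NTA purified. Compounds, serially diluted 1:3 in DMSO, pre-incubated 30 min with enzyme in 50 mM Hepes pH 7.4, 140 mM KCl, 5 mM MgCl2, 0.01% Triton-X, then ATP and fructose added; 4 h at room temperature. ADP formation read by ADP-Glo luminescence.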

human KHK-A = human KHK-A (Homo sapiens (Human), UniProt P50053); test: KHK Biochemical Assay (IC50), ADP-Glo, KHK-A; conditions: average of at least two separate assays
Outline: as §1

[1] = molecular target: KHK-C expressed in NRK-52E cells (Homo sapiens (Human), UniProt P50053); test: KHK-C Cell-based Assay (EC50), NRK CTG, fructose-mediated ATP-depletion
Sequence of KHK-C expressed in NRK-52E cells (P50053 whole entry): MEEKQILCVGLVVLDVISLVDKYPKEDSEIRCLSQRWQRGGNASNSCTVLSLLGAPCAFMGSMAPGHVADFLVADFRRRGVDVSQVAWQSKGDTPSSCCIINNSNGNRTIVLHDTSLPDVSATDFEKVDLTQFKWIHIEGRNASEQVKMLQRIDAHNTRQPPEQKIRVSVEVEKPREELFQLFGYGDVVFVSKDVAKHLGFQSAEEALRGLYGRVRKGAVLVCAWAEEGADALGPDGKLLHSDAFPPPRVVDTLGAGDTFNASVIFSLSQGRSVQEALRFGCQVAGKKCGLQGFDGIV

Sequence of human KHK-A (P50053 other isoform, or with tags, fused parts or gaps): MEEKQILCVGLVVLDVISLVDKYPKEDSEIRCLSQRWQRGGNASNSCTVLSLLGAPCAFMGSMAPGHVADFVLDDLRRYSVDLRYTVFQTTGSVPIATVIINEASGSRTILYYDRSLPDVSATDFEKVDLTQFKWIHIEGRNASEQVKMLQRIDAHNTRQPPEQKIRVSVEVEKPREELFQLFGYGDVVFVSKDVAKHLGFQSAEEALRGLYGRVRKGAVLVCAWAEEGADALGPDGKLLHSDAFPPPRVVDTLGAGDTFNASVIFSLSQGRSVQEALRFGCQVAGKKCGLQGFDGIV
Sequence of human KHK-C (P50053 whole entry): as the sequence (P50053 whole entry) above

| IC50 (human KHK-C; ADP-Glo) | IC50 (human KHK-A; ADP-Glo) | EC50 [1] | IC50 (human KHK-C) | IC50 (human KHK-A) | EC50 ([1]; read-out: NRK CTG EC50, NRK-52E cells, Cell-Titer Glo, 25 mM fructose) | SMILES |
| --- | --- | --- | --- | --- | --- | --- |
| 0.0447 µM | 0.0623 µM | 2.14 µM |  |  |  | C[C@H]1CCN1c1nc2c(c(-c3cccc([C@H]4C[C@@H]4c4nn[nH]n4)c3)n1)CCC2 (relative stereo) [Example 270, 4-(3-((1S*,2S*)-2-(2H-tetrazol-5-yl)cyclopropyl)phenyl)-2-((S)-2-methylazetidin-1-yl)-6,7-dihydro-5H-cyclopenta[d]pyrimidine] |
| 0.0112 µM | 0.0089 µM | 0.121 µM |  |  |  | C[C@H]1CCN1c1nc2c(c(-c3cccc([C@@H]4C[C@H]4C(=O)O)c3)n1)CCC2 (single isomer, unassigned) [Example 90] |
|  |  | 0.0057 µM | 0.0006 µM | 0.0005 µM |  | C[C@H]1[C@H](O)CN1c1nc(-c2ccc(OC3CC3)c([S@@](C)(=N)=O)c2)c2c(n1)C(F)(F)CC2 (single isomer, unassigned) [Example 542] |
|  |  | 0.0067 µM | 0.0008 µM | 0.0163 µM |  | C[C@H]1[C@H](O)CN1c1nc(-c2ccc3c(c2)OC[C@]32NC(=O)OC2(C)C)c2c(n1)C(F)(F)CC2 (single isomer, unassigned) [Example 566] |
|  |  | 0.161 µM | 0.0221 µM | 0.0351 µM |  | C[C@H]1[C@H](O)CN1c1nc(-c2ccc3c(c2)CC[C@@]32CCC(=O)N2)c2c(n1)C(F)(F)CC2 (single isomer, unassigned) [Example 637] |
|  |  | 0.0061 µM | 0.0003 µM | 0.0085 µM |  | C[C@H]1[C@H](O)CN1c1nc(-c2ccc3c(c2)CC[C@]32CCC(=O)N2)c2c(n1)C(F)(F)CC2 (single isomer, unassigned) [Example 638] |
|  |  | 0.28 µM | 0.0292 µM | 0.0388 µM |  | C[C@H]1[C@H](O)CN1c1nc(-c2ccc3c(c2)COC[C@@]32CCC(=O)N2)c2c(n1)C(F)(F)CC2 (single isomer, unassigned) [Example 640] |
|  |  |  | 0.0009 µM | 0.0145 µM | 0.0203 µM | C[C@H]1[C@H](O)CN1c1nc(-c2ccc3c(c2)COC[C@]32CCC(=O)N2)c2c(n1)C(F)(F)CC2 (single isomer, unassigned) [Example 641] |
|  |  | 0.0504 µM | 0.0074 µM | 0.0075 µM |  | C[C@H]1CCN1c1nc(-c2cccc(N=[S@@](C)(N)=O)c2)c2c(n1)C(F)(F)CC2 (single isomer, unassigned) [Example 691] |
|  |  | 0.0449 µM | 0.0083 µM | 0.0069 µM |  | C[C@H]1CCN1c1nc(-c2cccc(N=[S@](C)(N)=O)c2)c2c(n1)C(F)(F)CC2 (single isomer, unassigned) [Example 692] |
|  |  | 0.108 µM | 0.0205 µM | 0.0318 µM |  | C[C@H]1[C@H](O)CN1c1nc(-c2ccc3c(c2)OC[C@]32CN(C)C(=O)N2)c2c(n1)C(F)(F)CC2 (single isomer, unassigned) [Example 701] |
|  |  | 0.0039 µM | 0.0002 µM | 0.0117 µM |  | C[C@H]1[C@H](O)CN1c1nc(-c2ccc3c(c2)OC[C@@]32CN(C)C(=O)N2)c2c(n1)C(F)(F)CC2 (single isomer, unassigned) [Example 702] |
| 1.63 µM | 2.1 µM | 0.7 µM |  |  |  | C[C@H]1CCN1c1nc2c(c(-c3ccc(C(O)C(F)(F)F)cc3)n1)CCC2 (stereo in doubt) [Example 265, 2,2,2-trifluoro-1-[4-[2-[(2S)-2-methylazetidin-1-yl]-6,7-dihydro-5H-cyclopenta[d]pyrimidin-4-yl]phenyl]ethanol] |
| > 5 µM | > 5 µM | > 5 µM |  |  |  | C[C@H]1CCN1c1nc2c(c(-c3ccc(C(N)C(F)(F)F)cc3)n1)CCC2 (stereo in doubt) [Example 269, 2,2,2-trifluoro-1-[4-[2-[(2S)-2-methylazetidin-1-yl]-6,7-dihydro-5H-cyclopenta[d]pyrimidin-4-yl]phenyl]ethanamine] |
|  |  | 0.546 µM | 0.489 µM | 0.459 µM |  | C[C@H]1CCN1c1nc2c(c(-c3cccc([C@H]4C[C@@H]4C#N)c3)n1)CCC2 (stereo in doubt) [Example 454, trans-2-[3-[2-[(2S)-2-methylazetidin-1-yl]-6,7-dihydro-5H-cyclopenta[d]pyrimidin-4-yl]phenyl]cyclopropanecarbonitrile] |
|  |  | 0.0518 µM | 0.0218 µM | 0.0448 µM |  | C[C@H]1CCN1c1nc2c(c(-c3cccc([C@H]4C[C@@H]4C(N)=O)c3)n1)CCC2 (stereo in doubt) [Example 456, trans-2-[3-[2-[(2S)-2-methylazetidin-1-yl]-6,7-dihydro-5H-cyclopenta[d]pyrimidin-4-yl]phenyl]cyclopropanecarboxamide] |
| 0.0597 µM | 0.0589 µM | 0.229 µM |  |  |  | Cc1ccc(-c2nc(N3CC[C@@H]3C)nc3c2CCC3)cc1C(N)=O [Example 27, (S)-2-methyl-5-(2-(2-methylazetidin-1-yl)-6,7-dihydro-5H-cyclopenta[d]pyrimidin-4-yl)benzamide] |

| IC50 (human KHK-C; ADP-Glo) | IC50 (human KHK-A; ADP-Glo) | EC50 [1] | IC50 (human KHK-C) | IC50 (human KHK-A) | EC50 ([1]; read-out: NRK CTG EC50, NRK-52E cells, Cell-Titer Glo, 25 mM fructose) | SMILES |
| --- | --- | --- | --- | --- | --- | --- |
| 0.0503 µM | 0.0552 µM | 0.137 µM |  |  |  | CNC(=O)c1cccc(-c2nc(N3CC[C@@H]3C)nc3c2CCC3)c1 [Example 28, (S)—N-methyl-3-(2-(2-methylazetidin-1-yl)-6,7-dihydro-5H-cyclopenta[d]pyrimidin-4-yl)benzamide] |
| 0.033 µM | 0.0553 µM | 0.12 µM |  |  |  | C[C@H]1CCN1c1nc2c(c(-c3cccc(CCC(N)=O)c3)n1)CCC2 [Example 29] |
| 0.0645 µM | 0.0527 µM | 0.142 µM |  |  |  | Cc1ncc(-c2nc(N3CC[C@@H]3C)nc3c2CCC3)s1 [Example 34, (S)-2-methyl-5-(2-(2-methylazetidin-1-yl)-6,7-dihydro-5H-cyclopenta[d]pyrimidin-4-yl)thiazole] |
| 0.146 µM | 0.147 µM | 0.434 µM |  |  |  | C[C@H]1CCN1c1nc2c(c(-c3cscn3)n1)CCC2 [Example 36, (S)-4-(2-(2-methylazetidin-1-yl)-6,7-dihydro-5H-cyclopenta[d]pyrimidin-4-yl)thiazole] |
| 0.836 µM | 0.812 µM | 12.2 µM |  |  |  | C[C@H]1[C@H](O)CN1c1nc(-c2cccc(S(N)(=O)=O)c2)c2c(cnn2C)n1 [Example 38] |
| 0.113 µM | 0.0862 µM | 0.211 µM |  |  |  | C[C@H]1CCN1c1nc2c(c(-c3ccc4[nH]ncc4c3)n1)CCC2 [Example 39, (S)-5-(2-(2-methylazetidin-1-yl)-6,7-dihydro-5H-cyclopenta[d]pyrimidin-4-yl)-1H-indazole] |
| 0.125 µM | 0.102 µM | 0.602 µM |  |  |  | CC(=O)Nc1cccc(-c2nc(N3C[C@@H](O)[C@@H]3C)nc3c2CCC3)c1 [Example 41] |
| 0.0481 µM | 0.0668 µM | 0.225 µM |  |  |  | C[C@H]1[C@H](O)CN1c1nc2c(c(-c3cccc(NS(C)(=O)=O)c3)n1)CCC2 [Example 43, N-(3-(2-((2S,3R)-3-hydroxy-2-methylazetidin-1-yl)-6,7-dihydro-5H-cyclopenta[d]pyrimidin-4-yl)phenyl)methanesulfonamide] |
| 0.259 µM | 0.286 µM | 0.329 µM |  |  |  | C[C@H]1CCN1c1nc2c(c(-c3ccc4cn[nH]c4c3)n1)CCC2 [Example 44, (S)-6-(2-(2-methylazetidin-1-yl)-6,7-dihydro-5H-cyclopenta[d]pyrimidin-4-yl)-1H-indazole] |
| 0.0152 µM | 0.0294 µM | 2.37 µM |  |  |  | C[C@H]1[C@H](O)CN1c1nc2c(c(-c3cccc(C4CC4C(=O)O)c3)n1)CCC2 (stereo partly drawn) [Example 47, 2-(3-(2-((2S,3R)-3-hydroxy-2-methylazetidin-1-yl)-6,7-dihydro-5H-cyclopenta[d]pyrimidin-4-yl)phenyl)cyclopropane-1-carboxylic acid] |
| 0.0053 µM | 0.0071 µM | 0.0771 µM |  |  |  | C[C@H]1[C@H](F)CN1c1nc2c(c(-c3cccc(C4CC4C(=O)O)c3)n1)CCC2 (stereo partly drawn) [Example 48] |
| 0.0178 µM | 0.0129 µM | 0.0658 µM |  |  |  | C[C@H]1[C@H](O)CN1c1nc2c(c(-c3ccc(C(N)=O)s3)n1)CCC2 [Example 57, 5-(2-((2S,3R)-3-hydroxy-2-methylazetidin-1-yl)-6,7-dihydro-5H-cyclopenta[d]pyrimidin-4-yl)thiophene-2-carboxamide] |
| 0.0079 µM | 0.0058 µM | 0.0095 µM |  |  |  | C[C@H]1[C@H](F)CN1c1nc2c(c(-c3ccc(C(N)=O)s3)n1)CCC2 [Example 58] |
| 0.0545 µM | 0.0648 µM | 35.5 µM |  |  |  | C[C@H]1CCN1c1nc2c(c(-c3cccc(C(=O)NCC(=O)O)c3)n1)CCC2 [Example 66, (S)-(3-(2-(2-methylazetidin-1-yl)-6,7-dihydro-5H-cyclopenta[d]pyrimidin-4-yl)benzoyl)glycine] |
| 0.0517 µM | 0.0294 µM | > 5 µM |  |  |  | C[C@H]1CCN1c1nc2c(c(-c3ccc4[nH]nc(CC(=O)O)c4c3)n1)CCC2 [Example 70, (S)-2-(5-(2-(2-methylazetidin-1-yl)-6,7-dihydro-5H-cyclopenta[d]pyrimidin-4-yl)-1H-indazol-3-yl)acetic acid] |
| 0.015 µM | 0.018 µM | 0.0298 µM |  |  |  | C[C@H]1CCN1c1nc2c(c(-c3ccc4c(c3)S(=O)(=O)NC4)n1)CCC2 [Example 72, (S)-6-(2-(2-methylazetidin-1-yl)-6,7-dihydro-5H-cyclopenta[d]pyrimidin-4-yl)-2,3-dihydrobenzo[d]isothiazole 1,1-dioxide] |

| SMILES | IC50 (human KHK-C; ADP-Glo) | IC50 (human KHK-A; ADP-Glo) | EC50 [1] | IC50 (human KHK-C) | IC50 (human KHK-A) | EC50 ([1]; read-out: NRK CTG EC50, NRK-52E cells, Cell-Titer Glo, 25 mM fructose) |
| --- | --- | --- | --- | --- | --- | --- |
| C[C@H]1CCN1c1nc(-c2cccc(C(N)=O)c2)c2c(n1)[C@@H]1CC[C@H]2C1 [Example 63, 3-((5S,8R)-2-((S)-2-methylazetidin-1-yl)-5,6,7,8-tetrahydro-5,8-methanoquinazolin-4-yl)benzamide] | 0.0953 µM | 0.112 µM | 0.138 µM |  |  |  |
